Assay results taken from patent US8030443B2, “Squamous cell carcinoma antigen-derived peptide binding to HLA-A24 molecule” (Kurume University, priority 2005, dated 2011).

System: peptide-specific IgG in sera of cancer patients and healthy donors
Test: Measurement of anti-peptide IgG in plasma by LUMINEX multiplexed flow cytometric assay
Assay type: binding, human
Procedure: The levels of anti-peptide immunoglobulin G (IgG) were measured by the LUMINEX™ system (multiplexed flow cytometric assay) as previously reported (Komatsu N, Shichijo S, Nakagawa M, Itoh K. New multiplexed flow cytometric assay to measure anti-peptide antibody: a novel tool for monitoring immune responses to peptides used for immunization. Scand J Clin Lab Invest 2004; 64:1-11). In brief, plasma was incubated with 25 μl of peptide-coupled color-coded beads for 2 hr at room temperature on a plate shaker. After incubation, the mixture was washed with a vacuum manifold apparatus and incubated with 100 μl of biotinylated goat anti-human IgG (γ chain-specific)(BA-3080, Vector Laboratories, Burlingame, Calif., USA) for 1 h at room temperature. The plate was then washed, followed by the addition of 100 μl of streptavidin-PE (S-866, Molecular Probes, Eugene, Oreg., USA) into wells, and was incubated for 30 min at room temperature on a plate shaker. The bound beads were washed three times followed by the addition of 100 μl of Tween-PBS into each well. Fifty μl of sample was detected using the LUMINEX™ system (multiplexed flow cytometric assay). To confirm the specificity of IgG to a SCCA peptide, sample plasma was cultured in plates coated with a corresponding SCCA peptide, or with an irrelevant SCCA peptide. After the operation was repeated three times, the levels of the corresponding SCCA peptide-specific IgG in the resulting supernatant were determined by the LUMINEX™ system (multiplexed flow cytometric assay).
These 9 SCCA-derived peptides were screened based on their ability to be recognized by IgG in cancer patients. Peptide-specific IgG was measured by a multiplexed flow cytometric assay (LUMINEX™ (multiplexed flow cytometric assay)). The plasma samples were derived from 35 uterine cervical SCC patients, 10 breast adenocarcinoma patients, 10 pancreatic adenocarcinoma patients, 10 gastric adenocarcinoma, and 6 colon adenocarcinoma patients. The level of fluorescence intensity was judged to be significant when exceeded 100 at an 1/100 dilution.

Question: “EFHCNHPFL (SCCA 362-370 peptide) [SCCA-derived peptide, position 362-370]” was tested. Which “Total: healthy donors with significant peptide-reactive IgG / donors tested” value (10 healthy donors, significant when fluorescence intensity exceeded 100 at 1/100 dilution) did it give?
Answer: The value was 1/10.

Question: What about the “Total: cancer patients with significant peptide-reactive IgG / patients tested” value (71 cancer patients, significant when fluorescence intensity exceeded 100 at 1/100 dilution) of the same sequence?
Answer: The value was 10/71.

Question: And the Fluorescence intesity (serum of Breast Ca. patient #36, 1:100 dilution)?
Answer: Its Fluorescence intesity is 10.

Question: And the Fluorescence intesity (serum of Breast Ca. patient #37, 1:100 dilution)?
Answer: The Fluorescence intesity was 24.

Question: And the Fluorescence intesity (serum of Breast Ca. patient #38, 1:100 dilution)?
Answer: The Fluorescence intesity was 8.

Question: What about the Fluorescence intesity (serum of Breast Ca. patient #39, 1:100 dilution) of the same sequence?
Answer: Its Fluorescence intesity is 11.

Question: What about the Fluorescence intesity (serum of Breast Ca. patient #40, 1:100 dilution) of the same sequence?
Answer: The Fluorescence intesity was 7.

Question: And the Fluorescence intesity (serum of Breast Ca. patient #41, 1:100 dilution)?
Answer: Its Fluorescence intesity is 215.

Question: What about the Fluorescence intesity (serum of Breast Ca. patient #42, 1:100 dilution) of the same sequence?
Answer: Its Fluorescence intesity is 19.

Question: What about the Fluorescence intesity (serum of Breast Ca. patient #43, 1:100 dilution) of the same sequence?
Answer: Its Fluorescence intesity is 10.

Question: What about the Fluorescence intesity (serum of Breast Ca. patient #44, 1:100 dilution) of the same sequence?
Answer: The Fluorescence intesity was 0.

Question: What about the Fluorescence intesity (serum of Breast Ca. patient #45, 1:100 dilution) of the same sequence?
Answer: Its Fluorescence intesity is 20.

Question: What about the Fluorescence intesity (serum of Colon Ca. patient #66, 1:100 dilution) of the same sequence?
Answer: Its Fluorescence intesity is 0.

Question: And the Fluorescence intesity (serum of Colon Ca. patient #67, 1:100 dilution)?
Answer: The Fluorescence intesity was 0.

Question: And the Fluorescence intesity (serum of Colon Ca. patient #68, 1:100 dilution)?
Answer: The Fluorescence intesity was 0.

Question: And the Fluorescence intesity (serum of Colon Ca. patient #69, 1:100 dilution)?
Answer: The Fluorescence intesity was 0.

Question: What about the Fluorescence intesity (serum of Colon Ca. patient #70, 1:100 dilution) of the same sequence?
Answer: The Fluorescence intesity was 1.

Question: And the Fluorescence intesity (serum of Colon Ca. patient #71, 1:100 dilution)?
Answer: The Fluorescence intesity was 19.

Question: What about the Fluorescence intesity (serum of Gastric Ca. patient #56, 1:100 dilution) of the same sequence?
Answer: Its Fluorescence intesity is 0.

Question: And the Fluorescence intesity (serum of Gastric Ca. patient #57, 1:100 dilution)?
Answer: Its Fluorescence intesity is 0.

Question: What about the Fluorescence intesity (serum of Gastric Ca. patient #58, 1:100 dilution) of the same sequence?
Answer: Its Fluorescence intesity is 6.

Question: What about the Fluorescence intesity (serum of Gastric Ca. patient #59, 1:100 dilution) of the same sequence?
Answer: Its Fluorescence intesity is 10.

Question: And the Fluorescence intesity (serum of Gastric Ca. patient #60, 1:100 dilution)?
Answer: Its Fluorescence intesity is 0.

Question: What about the Fluorescence intesity (serum of Gastric Ca. patient #61, 1:100 dilution) of the same sequence?
Answer: The Fluorescence intesity was 1.

Question: And the Fluorescence intesity (serum of Gastric Ca. patient #62, 1:100 dilution)?
Answer: The Fluorescence intesity was 0.

Question: And the Fluorescence intesity (serum of Gastric Ca. patient #63, 1:100 dilution)?
Answer: The Fluorescence intesity was 0.

Question: And the Fluorescence intesity (serum of Gastric Ca. patient #64, 1:100 dilution)?
Answer: The Fluorescence intesity was 0.

Question: What about the Fluorescence intesity (serum of Gastric Ca. patient #65, 1:100 dilution) of the same sequence?
Answer: Its Fluorescence intesity is 0.

Question: And the Fluorescence intesity (serum of Healthy Donor #1, 1:100 dilution)?
Answer: The Fluorescence intesity was 0.

Question: What about the Fluorescence intesity (serum of Healthy Donor #2, 1:100 dilution) of the same sequence?
Answer: Its Fluorescence intesity is 37.

Question: What about the Fluorescence intesity (serum of Healthy Donor #3, 1:100 dilution) of the same sequence?
Answer: The Fluorescence intesity was 0.

Question: What about the Fluorescence intesity (serum of Healthy Donor #4, 1:100 dilution) of the same sequence?
Answer: Its Fluorescence intesity is 0.

Question: And the Fluorescence intesity (serum of Healthy Donor #5, 1:100 dilution)?
Answer: Its Fluorescence intesity is 0.

Question: And the Fluorescence intesity (serum of Healthy Donor #6, 1:100 dilution)?
Answer: The Fluorescence intesity was 0.

Question: And the Fluorescence intesity (serum of Healthy Donor #7, 1:100 dilution)?
Answer: The Fluorescence intesity was 0.

Question: What about the Fluorescence intesity (serum of Healthy Donor #8, 1:100 dilution) of the same sequence?
Answer: Its Fluorescence intesity is 283.

Question: And the Fluorescence intesity (serum of Healthy Donor #9, 1:100 dilution)?
Answer: The Fluorescence intesity was 29.

Question: What about the Fluorescence intesity (serum of Healthy Donor #10, 1:100 dilution) of the same sequence?
Answer: The Fluorescence intesity was 0.

Question: What about the Fluorescence intesity (serum of Pancreas Ca. patient #46, 1:100 dilution) of the same sequence?
Answer: The Fluorescence intesity was 0.

Question: And the Fluorescence intesity (serum of Pancreas Ca. patient #47, 1:100 dilution)?
Answer: Its Fluorescence intesity is 1.

Question: What about the Fluorescence intesity (serum of Pancreas Ca. patient #48, 1:100 dilution) of the same sequence?
Answer: The Fluorescence intesity was 339.

Question: What about the Fluorescence intesity (serum of Pancreas Ca. patient #49, 1:100 dilution) of the same sequence?
Answer: The Fluorescence intesity was 0.

Question: What about the Fluorescence intesity (serum of Pancreas Ca. patient #50, 1:100 dilution) of the same sequence?
Answer: The Fluorescence intesity was 0.

Question: And the Fluorescence intesity (serum of Pancreas Ca. patient #51, 1:100 dilution)?
Answer: The Fluorescence intesity was 0.

Question: What about the Fluorescence intesity (serum of Pancreas Ca. patient #52, 1:100 dilution) of the same sequence?
Answer: The Fluorescence intesity was 104.

Question: What about the Fluorescence intesity (serum of Pancreas Ca. patient #53, 1:100 dilution) of the same sequence?
Answer: The Fluorescence intesity was 0.

Question: And the Fluorescence intesity (serum of Pancreas Ca. patient #54, 1:100 dilution)?
Answer: Its Fluorescence intesity is 6.

Question: And the Fluorescence intesity (serum of Pancreas Ca. patient #55, 1:100 dilution)?
Answer: Its Fluorescence intesity is 0.

Question: What about the Fluorescence intesity (serum of Uterine cervical Ca. patient #1, 1:100 dilution) of the same sequence?
Answer: The Fluorescence intesity was 0.

Question: What about the Fluorescence intesity (serum of Uterine cervical Ca. patient #2, 1:100 dilution) of the same sequence?
Answer: The Fluorescence intesity was 0.

Question: What about the Fluorescence intesity (serum of Uterine cervical Ca. patient #3, 1:100 dilution) of the same sequence?
Answer: The Fluorescence intesity was 0.

Question: And the Fluorescence intesity (serum of Uterine cervical Ca. patient #4, 1:100 dilution)?
Answer: Its Fluorescence intesity is 0.

Question: What about the Fluorescence intesity (serum of Uterine cervical Ca. patient #5, 1:100 dilution) of the same sequence?
Answer: The Fluorescence intesity was 3.

Question: And the Fluorescence intesity (serum of Uterine cervical Ca. patient #6, 1:100 dilution)?
Answer: The Fluorescence intesity was 611.

Question: What about the Fluorescence intesity (serum of Uterine cervical Ca. patient #7, 1:100 dilution) of the same sequence?
Answer: The Fluorescence intesity was 11.

Question: What about the Fluorescence intesity (serum of Uterine cervical Ca. patient #8, 1:100 dilution) of the same sequence?
Answer: Its Fluorescence intesity is 49.

Question: What about the Fluorescence intesity (serum of Uterine cervical Ca. patient #9, 1:100 dilution) of the same sequence?
Answer: Its Fluorescence intesity is 90.

Question: And the Fluorescence intesity (serum of Uterine cervical Ca. patient #10, 1:100 dilution)?
Answer: The Fluorescence intesity was 15.

Question: What about the Fluorescence intesity (serum of Uterine cervical Ca. patient #11, 1:100 dilution) of the same sequence?
Answer: The Fluorescence intesity was 28.

Question: What about the Fluorescence intesity (serum of Uterine cervical Ca. patient #12, 1:100 dilution) of the same sequence?
Answer: The Fluorescence intesity was 37.

Question: What about the Fluorescence intesity (serum of Uterine cervical Ca. patient #13, 1:100 dilution) of the same sequence?
Answer: Its Fluorescence intesity is 25.

Question: What about the Fluorescence intesity (serum of Uterine cervical Ca. patient #14, 1:100 dilution) of the same sequence?
Answer: Its Fluorescence intesity is 17.

Question: And the Fluorescence intesity (serum of Uterine cervical Ca. patient #15, 1:100 dilution)?
Answer: Its Fluorescence intesity is 106.

Question: What about the Fluorescence intesity (serum of Uterine cervical Ca. patient #16, 1:100 dilution) of the same sequence?
Answer: The Fluorescence intesity was 191.

Question: And the Fluorescence intesity (serum of Uterine cervical Ca. patient #17, 1:100 dilution)?
Answer: The Fluorescence intesity was 56.

Question: What about the Fluorescence intesity (serum of Uterine cervical Ca. patient #18, 1:100 dilution) of the same sequence?
Answer: Its Fluorescence intesity is 50.

Question: And the Fluorescence intesity (serum of Uterine cervical Ca. patient #19, 1:100 dilution)?
Answer: The Fluorescence intesity was 48.

Question: And the Fluorescence intesity (serum of Uterine cervical Ca. patient #20, 1:100 dilution)?
Answer: The Fluorescence intesity was 104.

Question: And the Fluorescence intesity (serum of Uterine cervical Ca. patient #21, 1:100 dilution)?
Answer: Its Fluorescence intesity is 22.

Question: What about the Fluorescence intesity (serum of Uterine cervical Ca. patient #22, 1:100 dilution) of the same sequence?
Answer: The Fluorescence intesity was 27.

Question: What about the Fluorescence intesity (serum of Uterine cervical Ca. patient #23, 1:100 dilution) of the same sequence?
Answer: The Fluorescence intesity was 56.

Question: What about the Fluorescence intesity (serum of Uterine cervical Ca. patient #24, 1:100 dilution) of the same sequence?
Answer: Its Fluorescence intesity is 1234.

Question: What about the Fluorescence intesity (serum of Uterine cervical Ca. patient #25, 1:100 dilution) of the same sequence?
Answer: Its Fluorescence intesity is 21.

Question: And the Fluorescence intesity (serum of Uterine cervical Ca. patient #26, 1:100 dilution)?
Answer: Its Fluorescence intesity is 83.

Question: And the Fluorescence intesity (serum of Uterine cervical Ca. patient #27, 1:100 dilution)?
Answer: Its Fluorescence intesity is 36.

Question: What about the Fluorescence intesity (serum of Uterine cervical Ca. patient #28, 1:100 dilution) of the same sequence?
Answer: The Fluorescence intesity was 153.

Question: What about the Fluorescence intesity (serum of Uterine cervical Ca. patient #29, 1:100 dilution) of the same sequence?
Answer: The Fluorescence intesity was 20.

Question: What about the Fluorescence intesity (serum of Uterine cervical Ca. patient #30, 1:100 dilution) of the same sequence?
Answer: Its Fluorescence intesity is 35.

Question: What about the Fluorescence intesity (serum of Uterine cervical Ca. patient #31, 1:100 dilution) of the same sequence?
Answer: The Fluorescence intesity was 133.

Question: And the Fluorescence intesity (serum of Uterine cervical Ca. patient #32, 1:100 dilution)?
Answer: The Fluorescence intesity was 23.

Question: And the Fluorescence intesity (serum of Uterine cervical Ca. patient #33, 1:100 dilution)?
Answer: Its Fluorescence intesity is 93.

Question: What about the Fluorescence intesity (serum of Uterine cervical Ca. patient #34, 1:100 dilution) of the same sequence?
Answer: Its Fluorescence intesity is 16.

Question: And the Fluorescence intesity (serum of Uterine cervical Ca. patient #35, 1:100 dilution)?
Answer: Its Fluorescence intesity is 21.
